Reference: patent publication US20260199325A1, “NOVEL SUBSTITUTED PYRAZINE-CARBOXAMIDE-IMIDAZOPYRIDINE DERIVATIVES” (Boehringer Ingelheim International GmbH, priority 2022, published 2026)

target: T1, human metabotropic Glutamate 4 receptor (Homo sapiens, UniProt Q14833); test: In vitro testing of mGluR4 potency (Assay A), cAMP HTRF in HEK293 cells; assay type: cell-based; conditions: Table 2; HEK293 cell overexpressing human mGluR4; 10 uM L-Glutamic acid, 1 uM forskolin
T1 construct: expressed in transfected cells; host or cells: HEK293
T1 sequence (Q14833 33-912): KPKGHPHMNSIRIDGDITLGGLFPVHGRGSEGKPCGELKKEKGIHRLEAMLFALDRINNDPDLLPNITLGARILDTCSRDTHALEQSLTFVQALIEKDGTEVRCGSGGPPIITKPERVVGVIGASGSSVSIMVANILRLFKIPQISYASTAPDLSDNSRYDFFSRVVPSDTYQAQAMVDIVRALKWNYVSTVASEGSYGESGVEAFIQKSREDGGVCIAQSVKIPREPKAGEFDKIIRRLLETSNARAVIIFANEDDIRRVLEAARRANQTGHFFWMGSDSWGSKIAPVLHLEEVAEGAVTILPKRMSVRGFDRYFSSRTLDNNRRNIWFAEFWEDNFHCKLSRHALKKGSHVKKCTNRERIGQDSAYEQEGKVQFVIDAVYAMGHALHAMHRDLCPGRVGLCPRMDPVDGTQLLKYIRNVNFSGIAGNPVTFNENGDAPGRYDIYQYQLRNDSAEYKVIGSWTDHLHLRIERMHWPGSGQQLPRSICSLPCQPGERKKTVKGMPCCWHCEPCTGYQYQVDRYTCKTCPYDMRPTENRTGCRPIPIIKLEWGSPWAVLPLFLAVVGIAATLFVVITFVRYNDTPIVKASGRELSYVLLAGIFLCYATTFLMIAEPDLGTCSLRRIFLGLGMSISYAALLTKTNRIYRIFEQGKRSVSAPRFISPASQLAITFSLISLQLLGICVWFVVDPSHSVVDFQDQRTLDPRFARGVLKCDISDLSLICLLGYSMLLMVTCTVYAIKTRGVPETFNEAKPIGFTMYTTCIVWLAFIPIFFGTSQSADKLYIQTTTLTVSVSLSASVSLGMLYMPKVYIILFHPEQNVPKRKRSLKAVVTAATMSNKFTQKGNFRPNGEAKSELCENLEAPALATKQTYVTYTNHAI
Procedure: A. In Vitro Testing of mGluR4 Potency
The in vitro activity of the compounds according to the invention may be investigated as follows:
The HEK293 cell overexpressing the human metabotropic Glutamate 4 receptor were thawed at 37° C. and immediately diluted with cell culture medium. After centrifugation, the cell pellet is re-suspended in medium and then distributed from a stirred spinner flask into the wells of the assay plate. The plates are incubated for one hour at room temperature before they are incubated for 24 hours at 37° C./5% C02. After washing the cells in the plate three times with 80 uL HBSS/HEPES buffer (10 uL buffer remained in the wells after washing), 5 uL per well of compounds diluted in HBSS/HEPES buffer containing 0.2% BSA (final concentration: 0.1%) and 1 mM IBMX (final concentration: 0.5 mM) are added to the wells of the assay plate. Thereafter 5 uL per well of L-Glutamic acid (final concentration: 10 uM), forskolin (final concentration: 1 uM) and 1 mM IBMX (final concentration: 0.5 mM) dissolved in HBSS/HEPES buffer containing 0.2% BSA (final concentration: 0.1%) are added to the assay plate (final DMSO concentration: 1%). Several wells of the assay plate are used either for the positive and the negative controls or for the cAMP standard curve. The assay plate is incubated for 30 minutes at room temperature. Then 5 ul per well of Anti-cAMP-Antibody-d2 solution and 5 ul per well of cAMP-Europium Cryptate dilution are added to all wells of the plate and the plate is incubated another 60 minutes light protected at room temperature. The emission at 615 nm and 665 nm (Excitation wavelength: 320 nm) are measured on the EnVision™ reader (PerkinElmer). The ratio between the emission at 665 nm and 615 is calculated by the reader. The whole assay is performed in the dark or under green light.
The cAMP standard is prepared by diluting the cAMP stock solution with HBSS/Hepes buffer: 5 μl/well of the cAMP dilutions (in HBSS/Hepes buffer containing 1 mM IBMX and 0.2% BSA-final concentration: 0.5 mM IBMX and 0.1% BSA) are added to 10 ul/well HBSS/Hepes buffer plus 5 ul/well 4% DMSO in HBSS/Hepes containing 0.2% BSA (final DMSO concentration: 1%-like in the wells containing compounds) in the wells of the assay plate. The final cAMP concentrations in the assay plate were: 0, 0.17, 0.69, 2.78, 11.1, 44.5, 178, and 712 nM (two wells/cAMP concentration).
Each assay microtiter plate contained also wells with vehicle controls instead of compound as controls for L-Glutamic acid induced signal (negative control; 100% CTL; 10 uM L-Glutamic acid+1 uM forskolin+0.5 mM IBMX+1% DMSO) and wells with vehicle controls without L-Glutamic acid as controls for non-specific changes in signal (positive control; 0% CTL; 0 uM L-Glutamic acid+1 uM forskolin+0.5 mM IBMX+1% DMSO).
The analysis of the data is performed by the calculation the ratio between the emission at 665 nm and the emission at 615 nm (Em665/Em615 ratio). Thereafter the signals of the compounds are normalized using the positive and negative controls by the following formula:
PoC=100×((Signal Sample−Positive Control)/(Negative Control−Positive Control))

Going from `COC(C)(C)[C@H](NC(=O)c1cnc(C(F)F)cn1)c1nc2c(C)c(C#N)cnc2n1C(C)C` [Example 1, N-[(1R)-1-[6-cyano-7-methyl-3-(propan-2-yl)-3H-imidazo[4,5-b]pyridin-2-yl]-2-methoxy-2-methylpropyl]-5-(difluoromethyl)pyrazine-2-carboxamide] to `COC(C)(C)[C@H](NC(=O)c1cnc(C)cn1)c1nc2c(C)c(C#N)cnc2n1C(C)C` [Example 2, N-[(IR)-1-[6-cyano-7-methyl-3-(propan-2-yl)-3H-imidazo[4,5-b]pyridin-2-yl]-2-methoxy-2-methylpropyl]-5-methylpyrazine-2-carboxamide], the IC50 rises from 1 nM to 2 nM (2-fold).

`Cc1cnc(C(=O)N[C@H](c2nc3cc(C(F)(F)F)cnc3n2C(C)C)C2CC2)cn1` [Example 3, N-[(S)-cyclopropyl[3-(propan-2-y1)-6-(trifluoromethyl)-3H-imidazo[4,5-b]pyridin-2-y1]methyl]-5-methylpyrazine-2-carboxamide] and `Cc1cnc(C(=O)N[C@@H](CC2CC2)c2nc3cc(C(F)(F)F)cnc3n2C(C)C)cn1` [Example 6, N-[(1S)-2-cyclopropyl-1-[3-(propan-2-yl)-6-(trifluoromethyl)-3H-imidazo[4,5-b]pyridin-2-yl]ethyl]-5-methylpyrazine-2-carboxamide] are the same in IC50: 2 nM for the first, 2 nM for the second.

Going from `Cc1c(C#N)cnc2c1nc([C@@H](NC(=O)c1cnc(C(F)F)cn1)C1CC1)n2C(C)C` [Example 4, N-[(S)-[6-cyano-7-methyl-3-(propan-2-yl)-3H-imidazo[4,5-b]pyridin-2-yl](cyclopropyl)methyl]-5-(difluoromethyl)pyrazine-2-carboxamide] to `Cc1c(C#N)cnc2c1nc([C@@H](NC(=O)c1cnc(C(F)F)cn1)C1CCC1)n2C(C)C` [Example 7, N-[(S)-[6-cyano-7-methyl-3-(propan-2-yl)-3H-imidazo[4,5-b]pyridin-2-yl](cyclobutyl)methyl]-5-(difluoromethyl)pyrazine-2-carboxamide], the IC50 rises from 2 nM to 3 nM (1.5-fold). The first is the more potent here.

First: COc1c(Br)cnc2c1nc([C@@H](NC(=O)c1cnc(C)cn1)C1CC1)n2C(C)C [Example 5, N-[(S)-[6-bromo-7-methoxy-3-(propan-2-yl)-3H-imidazo[4,5-b]pyridin-2-yl](cyclopropyl)methyl]-5-methylpyrazine-2-carboxamide]
Second: Cc1cnc(C(=O)N[C@H](c2nc3c(C)c(C#N)cnc3n2C(C)C)C2CCC2)cn1 [Example 15, N-[(S)-[6-cyano-7-methyl-3-(propan-2-yl)-3H-imidazo[4,5-b]pyridin-2-yl](cyclobutyl)methyl]-5-methylpyrazine-2-carboxamide]
The IC50 of the first is 3-fold lower: 2 nM for the first, 6 nM for the second. The first is the more potent here.

Going from `Cc1cnc(C(=O)N[C@H](c2nc3ccc(C(F)(F)F)nc3n2C(C)C)C2CC2)cn1` [Example 8, N-[(S)-cyclopropyl[3-(propan-2-yl)-5-(trifluoromethyl)-3H-imidazo[4,5-b]pyridin-2-yl]methyl]-5-methylpyrazine-2-carboxamide] to `Cc1cnc(C(=O)N[C@H](c2nc3c(C)nc(C(F)(F)F)cc3n2C(C)C)C2CC2)cn1` [Example 16, N-[(S)-cyclopropyl[4-methyl-1-(propan-2-yl)-6-(trifluoromethyl)-1H-imidazo[4,5-c]pyridin-2-yl]methyl]-5-methylpyrazine-2-carboxamide], the IC50 rises from 3 nM to 13 nM (4.3-fold). The first is the more potent here.

`COC(C)(C)[C@H](NC(=O)c1cnc(C)cn1)c1nc2cc(Cl)cnc2n1C(C)C` [Example 9, N-[(1R)-1-[6-chloro-3-(propan-2-yl)-3H-imidazo[4,5-b]pyridin-2-yl]-2-methoxy-2-methylpropyl]-5-methylpyrazine-2-carboxamide] and `CO[C@H](C)[C@H](NC(=O)c1cnc(C)cn1)c1nc2cc(Cl)cnc2n1C(C)C` [Example 13, N-[(1R,2R)-1-[6-chloro-3-(propan-2-yl)-3H-imidazo[4,5-b]pyridin-2-yl]-2-methoxypropyl]-5-methylpyrazine-2-carboxamide] are within 1.5-fold of each other in IC50: 3 nM for the first, 4 nM for the second.

`Cc1cnc(C(=O)N[C@H](c2nc3cc(Cl)cnc3n2C(C)C)C2CC2)cn1` [Example 10, N-[(S)-[6-chloro-3-(propan-2-yl)-3H-imidazo[4,5-b]pyridin-2-yl](cyclopropyl)methyl]-5-methylpyrazine-2-carboxamide] and `Cc1cnc(C(=O)N[C@@H](CC2CC2)c2nc3c(C)c(C#N)cnc3n2C(C)C)cn1` [Example 14, N-[(1S)-1-[6-cyano-7-methyl-3-(propan-2-yl)-3H-imidazo[4,5-b]pyridin-2-yl]-2-cyclopropylethyl]-5-methylpyrazine-2-carboxamide] are within 1.5-fold of each other in IC50: 4 nM for the first, 5 nM for the second.

First: Cc1c(C#N)cnc2c1nc([C@H](CC1CC1)NC(=O)c1cnc(C(F)F)cn1)n2C(C)C [Example 11, N-[(1S)-1-[6-cyano-7-methyl-3-(propan-2-yl)-3H-imidazo[4,5-b]pyridin-2-yl]-2-cyclopropylethyl]-5-(difluoromethyl)pyrazine-2-carboxamide]
Second: Cc1c(C#N)cnc2c1nc([C@@H](NC(=O)c1cnc(C(F)F)cn1)[C@H]1CCCO1)n2C(C)C [Example 17, N-[(R)-[6-cyano-7-methyl-3-(propan-2-yl)-3H-imidazo[4,5-b]pyridin-2-yl][(2R)-oxolan-2-yl]methyl]-5-(difluoromethyl)pyrazine-2-carboxamide]
The IC50 of the first is 1.8-fold lower: 4 nM for the first, 7 nM for the second.

Going from `CO[C@H](C)[C@H](NC(=O)c1cnc(C)cn1)c1nc2cc(C(F)(F)F)cnc2n1C(C)C` [Example 12, N-[(1R,2R)-2-methoxy-1-[3-(propan-2-yl)-6-(trifluoromethyl)-3H-imidazo[4,5-b]pyridin-2-yl]propyl]-5-methylpyrazine-2-carboxamide] to `CO[C@H](C)[C@H](NC(=O)c1cnc(C(F)F)cn1)c1nc2c(C)c(C#N)cnc2n1C(C)C` [Example 19, N-[(1R,2R)-1-[6-cyano-7-methyl-3-(propan-2-yl)-3H-imidazo[4,5-b]pyridin-2-yl]-2-methoxypropyl]-5-(difluoromethyl)pyrazine-2-carboxamide], the IC50 rises from 4 nM to 8 nM (2-fold).

`Cc1cnc(C(=O)N[C@@H](C[C@H]2CCCO2)c2nc3c(C)c(C#N)cnc3n2C(C)C)cn1` [Example 18, N-[(1S)-1-[6-cyano-7-methyl-3-(propan-2-yl)-3H-imidazo[4,5-b]pyridin-2-yl]-2-[(2R)-oxolan-2-yl]ethyl]-5-methylpyrazine-2-carboxamide] and `Cc1cnc(C(=O)N[C@H](c2nc3c(C)c(C#N)cnc3n2C(C)C)[C@@H](C)OC(F)F)cn1` [Example 21, N-[(1R,2R)-1-[6-cyano-7-methyl-3-(propan-2-yl)-3H-imidazo[4,5-b]pyridin-2-yl]-2-(difluoromethoxy)propyl]-5-methylpyrazine-2-carboxamide] are within 1.5-fold of each other in IC50: 7 nM for the first, 9 nM for the second.

`Cc1c(C#N)cnc2c1nc([C@@H](NC(=O)c1cnc(C(F)F)cn1)[C@@H](C)OC(F)F)n2C(C)C` [Example 20, N-[(1R,2R)-1-[6-cyano-7-methyl-3-(propan-2-yl)-3H-imidazo[4,5-b]pyridin-2-yl]-2-(difluoromethoxy)propyl]-5-(difluoromethyl)pyrazine-2-carboxamide] and `Cc1nc(C(F)(F)F)cc2c1nc([C@@H](NC(=O)c1cnc(C(F)F)cn1)C1CC1)n2C(C)C` [Example 22, N-[(S)-cyclopropyl[4-methyl-1-(propan-2-yl)-6-(trifluoromethyl)-1H-imidazo[4,5-c]pyridin-2-yl]methyl]-5-(difluoromethyl)pyrazine-2-carboxamide] are within 1.5-fold of each other in IC50: 8 nM for the first, 10 nM for the second.
